In ChEMBL document CHEMBL1909294, “Translating clinical findings into knowledge in drug safety evaluation--drug induced liver injury prediction system (DILIps)” (PLoS Comput Biol, 2011):

Key:
Hepatotoxicity [1] = tested on: Hepatotoxicity;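 on HepSE cholecystitis: Cholecystitis-related hepatic side effect score drawn from the DILIps (drug-induced liver injury prediction) training data set; call rule not given here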;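 on HepSE cholelithiasis: hepatic side effect score for cholelithiasis, drawn from the DILIps training data for predicting drug-induced liver injury; call rule not given here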;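 on HepSE cirrhosis: cirrhosis hepatic side effect score taken from the DILIps (drug-induced liver injury prediction) training set; call rule not given here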;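 on HepSE hepatic necrosis: score of hepatic side effects for hepatic necrosis, drawn from the training data of DILIps, a prediction system for drug-induced liver injury; call rule not given here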;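 on HepSE hepatomegaly: hepatic side effect score for hepatomegaly, taken from the training set of the DILIps drug-induced liver injury prediction system; call rule not given here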;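 on HepSE jaundice: Jaundice-related hepatic side-effect score drawn from the training data of the DILIps (drug-induced liver injury prediction system); call rule not given here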
Hepatotoxicity [2] = tested on: Hepatotoxicity; remark: listed apart in the source;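 on HepSE cholecystitis: Cholecystitis-related hepatic side effect score drawn from the DILIps (drug-induced liver injury prediction) training data set; call rule not given here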;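 on HepSE cholelithiasis: hepatic side effect score for cholelithiasis, drawn from the DILIps training data for predicting drug-induced liver injury; call rule not given here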;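 on HepSE cirrhosis: cirrhosis hepatic side effect score taken from the DILIps (drug-induced liver injury prediction) training set; call rule not given here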;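 on HepSE hepatic necrosis: score of hepatic side effects for hepatic necrosis, drawn from the training data of DILIps, a prediction system for drug-induced liver injury; call rule not given here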;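 on HepSE hepatomegaly: hepatic side effect score for hepatomegaly, taken from the training set of the DILIps drug-induced liver injury prediction system; call rule not given here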;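 on HepSE jaundice: Jaundice-related hepatic side-effect score drawn from the training data of the DILIps (drug-induced liver injury prediction system); call rule not given here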
Hepatotoxicity [3] = tested on: Hepatotoxicity; remark: listed apart in the source;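 on HepSE cholecystitis: Cholecystitis-related hepatic side effect score drawn from the DILIps (drug-induced liver injury prediction) training data set; call rule not given here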;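 on HepSE cholelithiasis: hepatic side effect score for cholelithiasis, drawn from the DILIps training data for predicting drug-induced liver injury; call rule not given here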;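 on HepSE cirrhosis: cirrhosis hepatic side effect score taken from the DILIps (drug-induced liver injury prediction) training set; call rule not given here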;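 on HepSE hepatic necrosis: score of hepatic side effects for hepatic necrosis, drawn from the training data of DILIps, a prediction system for drug-induced liver injury; call rule not given here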;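 on HepSE hepatomegaly: hepatic side effect score for hepatomegaly, taken from the training set of the DILIps drug-induced liver injury prediction system; call rule not given here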;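 on HepSE jaundice: Jaundice-related hepatic side-effect score drawn from the training data of the DILIps (drug-induced liver injury prediction system); call rule not given here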
Hepatotoxicity [4] = tested on: Hepatotoxicity; remark: listed apart in the source;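 on HepSE cholecystitis: Cholecystitis-related hepatic side effect score drawn from the DILIps (drug-induced liver injury prediction) training data set; call rule not given here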;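 on HepSE cholelithiasis: hepatic side effect score for cholelithiasis, drawn from the DILIps training data for predicting drug-induced liver injury; call rule not given here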;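 on HepSE hepatic necrosis: score of hepatic side effects for hepatic necrosis, drawn from the training data of DILIps, a prediction system for drug-induced liver injury; call rule not given here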;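 on HepSE hepatomegaly: hepatic side effect score for hepatomegaly, taken from the training set of the DILIps drug-induced liver injury prediction system; call rule not given here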;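 on HepSE jaundice: Jaundice-related hepatic side-effect score drawn from the training data of the DILIps (drug-induced liver injury prediction system); call rule not given here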
Hepatotoxicity [5] = tested on: Hepatotoxicity; remark: listed apart in the source
Hepatotoxicity [6] = tested on: Hepatotoxicity; remark: listed apart in the source
Hepatotoxicity [7] = tested on: Hepatotoxicity; remark: listed apart in the source
Hepatotoxicity [8] = tested on: Hepatotoxicity; remark: listed apart in the source
Hepatotoxicity [9] = tested on: Hepatotoxicity; remark: listed apart in the source
Hepatotoxicity [10] = tested on: Hepatotoxicity; remark: listed apart in the source
Hepatotoxicity [11] = tested on: Hepatotoxicity; remark: listed apart in the source
Hepatotoxicity [12] = tested on: Hepatotoxicity; remark: listed apart in the source
Hepatotoxicity [13] = tested on: Hepatotoxicity; remark: listed apart in the source
Hepatotoxicity [14] = tested on: Hepatotoxicity; remark: listed apart in the source

Compound | HepSE_hepatic necrosis (Hepatotoxicity [1]) | HepSE_cholecystitis (Hepatotoxicity [2]) | HepSE_cholelithiasis (Hepatotoxicity [3]) | HepSE_liver fatty (Hepatotoxicity [4]) | HepSE_hepatitis (Hepatotoxicity [5]) | HepSE_hepatomegaly (Hepatotoxicity [6]) | HepSE_jaundice (Hepatotoxicity [7]) | HepSE_cirrhosis (Hepatotoxicity [8]) | HepSE_liver function tests abnormal (Hepatotoxicity [9]) | HepSE_bilirubinemia (Hepatotoxicity [10]) | HepSE_hepatic failure (Hepatotoxicity [11]) | HepSE_liver disease (Hepatotoxicity [12]) | HepSE_Combined Scores (Hepatotoxicity [13]) | HepSE_elevated liver function tests (Hepatotoxicity [14]) | other results
COc1cc(C(=O)NS(=O)(=O)c2ccccc2C)ccc1Cc1cn(C)c2ccc(NC(=O)OC3CCCC3)cc12 [ZAFIRLUKAST] | 0 | 0 | 0 | 0 | 1 | 0 | 0 | 0 | 0 | 1 | 1 | 0 | 4 | 1 | –
Nc1ccn([C@H]2CC[C@@H](CO)O2)c(=O)n1 [ZALCITABINE] | – | – | – | – | – | – | – | – | – | – | – | – | – | – | HepSE_hepatic necrosis (Hepatotoxicity [1]; Liver): 0; HepSE_cholecystitis (Hepatotoxicity [2]; Liver): 1; HepSE_cholelithiasis (Hepatotoxicity [3]; Liver): 0; HepSE_liver fatty (Hepatotoxicity [4]; Liver): 0; HepSE_hepatitis (Hepatotoxicity [5]; Liver): 1; HepSE_hepatomegaly (Hepatotoxicity [6]; Liver): 1; HepSE_jaundice (Hepatotoxicity [7]; Liver): 1; HepSE_cirrhosis (Hepatotoxicity [8]; Liver): 0; HepSE_liver function tests abnormal (Hepatotoxicity [9]; Liver): 0; HepSE_bilirubinemia (Hepatotoxicity [10]; Liver): 1; HepSE_hepatic failure (Hepatotoxicity [11]; Liver): 0; HepSE_liver disease (Hepatotoxicity [12]; Liver): 0; HepSE_Combined Scores (Hepatotoxicity [13]; Liver): 5; HepSE_elevated liver function tests (Hepatotoxicity [14]; Liver): 0
CCN(C(C)=O)c1cccc(-c2ccnc3c(C#N)cnn23)c1 [ZALEPLON] | 0 | 0 | 1 | 0 | 0 | 0 | 0 | 0 | 1 | 1 | 0 | 0 | 3 | 0 | –
CC(=O)N[C@H]1[C@H]([C@H](O)[C@H](O)CO)OC(C(=O)O)=C[C@@H]1N=C(N)N [ZANAMIVIR] | 0 | 0 | 0 | 0 | 0 | 0 | 0 | 0 | 0 | 0 | 0 | 0 | 0 | 0 | –
Cc1cn([C@H]2C[C@H](N=[N+]=[N-])[C@@H](CO)O2)c(=O)[nH]c1=O [ZIDOVUDINE] | 0 | 0 | 0 | 0 | 1 | 1 | 1 | 0 | 0 | 1 | 0 | 0 | 4 | 0 | –
O=C1Cc2cc(CCN3CCN(c4nsc5ccccc45)CC3)c(Cl)cc2N1 [ZIPRASIDONE] | 0 | 0 | 0 | 1 | 1 | 1 | 1 | 0 | 0 | 0 | 0 | 0 | 4 | 0 | –
O.O=P(O)(O)C(O)(Cn1ccnc1)P(=O)(O)O [ZOLEDRONIC ACID] | 0 | 0 | 0 | 0 | 0 | 0 | 0 | 0 | 1 | 0 | 0 | 0 | 1 | 0 | –
CN(C)CCc1c[nH]c2ccc(C[C@H]3COC(=O)N3)cc12 [ZOLMITRIPTAN] | 0 | 0 | 0 | 0 | 0 | 0 | 1 | 0 | 0 | 0 | 0 | 1 | 2 | 0 | –
Cc1ccc(-c2nc3ccc(C)cn3c2CC(=O)N(C)C)cc1 [ZOLPIDEM] | 0 | 0 | 0 | 0 | 0 | 0 | 0 | 0 | 0 | 1 | 0 | 0 | 1 | 0 | –
NS(=O)(=O)Cc1noc2ccccc12 [ZONISAMIDE] | 0 | 1 | 1 | 0 | 0 | 0 | 1 | 0 | 0 | 0 | 0 | 0 | 3 | 0 | –
CN1CCN(C(=O)OC2c3nccnc3C(=O)N2c2ccc(Cl)cn2)CC1 (stereo unspecified) [ZOPICLONE] | 0 | 0 | 1 | 0 | 1 | 1 | 0 | 0 | 0 | 0 | 0 | 0 | 3 | 0 | –
AURANOFIN | 0 | 0 | 0 | 0 | 0 | 0 | 1 | 0 | 0 | 0 | 0 | 0 | 1 | 0 | –
BLEOMYCIN | 0 | 0 | 0 | 0 | 0 | 0 | 0 | 0 | 0 | 0 | 0 | 0 | 0 | 0 | –
CARBOPLATIN | 0 | 0 | 0 | 0 | 0 | 0 | 0 | 0 | 1 | 0 | 0 | 0 | 1 | 0 | –
CISPLATIN | 0 | 0 | 0 | 0 | 0 | 0 | 0 | 0 | 0 | 0 | 0 | 0 | 0 | 0 | –
COLESEVELAM HYDROCHLORIDE | 0 | 0 | 0 | 0 | 0 | 0 | 0 | 0 | 0 | 0 | 0 | 0 | 0 | 0 | –
COLESTIPOL | 0 | 1 | 1 | 0 | 0 | 0 | 0 | 0 | 0 | 0 | 0 | 0 | 2 | 0 | –
GADOBUTROL | 0 | 0 | 0 | 0 | 0 | 0 | 0 | 0 | 0 | 0 | 0 | 0 | 0 | 0 | –
GADODIAMIDE | 0 | 0 | 0 | 0 | 0 | 0 | 0 | 0 | 0 | 0 | 0 | 0 | 0 | 0 | –
